This note sets out measurements from patent US7034024B1, “Product inhibiting transduction of G heterotrimeric protein signals combined with another anti-cancer agent for therapeutic use in cancer treatment” (Societe de Conseils de Recherches et d'Applications …, priority 1999, dated 2006).

The assay relates to Mia-Paca2 cells (human pancreatic cancer cells). The experiment in a line: Measurement of cell proliferation in vitro (WST1 colorimetric test, polyhema-coated plates). It counts as cell-based. Set-up: Observed values (living cells): scale not given here. The following applies: for Compound B1 alone (observed value of living cells) / Compound B5 alone (observed value of living cells): 0 μM = 100; for Compound B4 alone (observed value of living cells) / Compound B2 alone (observed value of living cells) / Compound B3 alone (observed value of living cells): 0 nM = 100. Here is the method:
The cell line Mia-Paca2 (human pancreatic cancer cells) was acquired from the American Tissue Culture Collection (Rockville, Md., USA).
The Mia-Paca2 cells (1500 cells/wells) are cultured in 96-well plates pre-coated with polyhema (Sigma) which allows only the growth of cells presenting a tumorigenic phenotype.
On day 0, these cells are seeded in 90 μl of Dulbecco's modified Eagle medium (Gibco-Brl, Cergy-Pontoise, France) completed with 10% of foetal calf serum inactivated by heating (Gibco-Brl, Cergy-Pontoise, France), 50000 units/l of penicillin and 50 mg/l streptomycin (Gibco-Brl, Cergy-Pontoise, France), and 2 mM of glutamin (Gibco-Brl, Cergy-Pontoise, France).
The cells were treated with increasing concentrations of two products alone or combined in a matrix, i.e.: on day 1, with the first product for 96 hours and on day 2 with the second product for 72 hours. According to method α, the transduction inhibitor of heterotrimeric G protein signals with which the anti-cancer agent is combined is administered before the latter, then according to method β, it is done so after.
At the end of this period, quantification of cell proliferation is evaluated by a colorimetric test based on the cleavage of the tetrazolium salt WST1 by mitochondrial dehydrogenases in the living cells leading to the formation of formazan (Boehringer Mannheim, Meylan, France). These tests are carried out in duplicate with 4 measurements for each single product and for each combination tested. This allows the number of living cells at the end of each treatment to be determined, i.e. the observed value. The calculated value of the living cells for each treatment corresponds to the multiplication of the observed values of the effects of separate products. These observed and calculated values are compared for each combination. When the observed value of living cells is lower than the calculated value of the living cells, a synergy is considered to exist. When the observed value is equal to the calculated value, a additive effect is considered to exist. When the observed value is greater than the calculated value, an antagonism is considered to exist.

Regarding “1-(2-(1-((4-cyano)phenylmethyl)imidazol-4-yl)-1-oxoethyl-2,5-dihydro-4-(2-methoxyphenyl)imidazo[1,2c][1,4]benzodiazepine [compound B1]”, the “Compound B1 alone (observed value of living cells)” value is listed as 94 ± 2.3 (B1 0.04 μM alone, Table I); 80 ± 4.2 (B1 0.2 μM alone, Table I); 68 ± 2.3 (B1 1 μM alone, Table I).
With “4-(2-bromophenyl)-1-(2-(1-((4-cyano-3-methoxy)phenylmethyl)-imidazo-5-yl)-1-oxoethyl)-1,2-dihydro-8-fluoro-imidazo[1,2a][1,4]-benzodiazepine [compound B5]”, the “Compound B5 alone (observed value of living cells)” value is, setting by setting: (B5 0.2 μM alone, Table V) 86 ± 0.9; (B5 1 μM alone, Table V) 63 ± 2.6.
Turning to `Cn1cncc1C(N)(c1ccc(Cl)cc1)c1ccc2c(c1)c(-c1cccc(Cl)c1)cc(=O)n2C` (racemic) [compound B4, (±)-4-(3-chlorophenyl)-6-[(4-chlorophenyl)-amino-(1-methyl-1H-imidazol-5-yl)methyl]-1-methyl-2(1H)quinolinone, reference compound], the “Compound B4 alone (observed value of living cells)” value was 104 ± 2.0 (B4 40 nM alone, Table IV); 90 ± 9.0 (B4 0.2 μM alone, Table IV); 72 ± 3 (B4 1 μM alone, Table IV).
Turning to `Cc1ccccc1-c1cn2c(n1)C(CC1CCCCC1)N(C(=O)C(N)CS)CC2` (stereo not shown) [compound A1, 7-(2-amino-1-oxo-3-thiopropyl)-8-(cyclohexylmethyl)-2-(2-methylphenyl)-5,6,7,8-tetrahydroimidazo[1,2a]pyrazine], the “Observed values (living cells)” value (A1 20 μM alone (B1 0 μM), method α, n = 4, Table I) stood at 51 ± 8.9; the “Observed values (living cells)” value (A1 20 μM alone (B2 0 nM), method α, n = 3, Table II) is on record as 49 ± 7.7; the “Observed values (living cells)” value (A1 20 μM alone (B3 0 nM), method α, n = 3, Table III) was found to be 65 ± 7.3.
Regarding `NC(CS)C(=O)N1CCn2cc(-c3ccccc3)nc2C1CC1CCCCC1` (stereo not shown) [compound A2, 7-(2-amino-1-oxo-3-thiopropyl)-8-(cyclohexylmethyl)-2-phenyl-5,6,7,8-tetrahydroimidazo[1,2a]pyrazine], the “Observed values (living cells)” value was 42 ± 11.0 (A2 20 μM alone (B4 0 nM), method β, n = 2, Table IV) and 44 ± 6.4 (A2 20 μM alone (B5 0 μM), method β, n = 3, Table V).
Take `CC(=O)O[C@H]1C(=O)[C@@]2(C)[C@H]([C@H](OC(=O)c3ccccc3)[C@]3(O)C[C@H](OC(=O)[C@H](O)[C@@H](NC(=O)c4ccccc4)c4ccccc4)C(C)=C1C3(C)C)[C@]1(OC(C)=O)CO[C@@H]1C[C@@H]2O` [compound B2, taxol, reference compound]: the “Compound B2 alone (observed value of living cells)” value (from here on “Compound B2 alone”) (B2 0.8 nM alone, Table II) is 100 ± 5.8; the “Compound B2 alone” value (B2 4 nM alone, Table II) is given as 100 ± 0.3; the “Compound B2 alone” value (B2 20 nM alone, Table II) is reported as 60 ± 10.6.
With `Nc1ccn([C@@H]2O[C@H](CO)[C@@H](O)C2(F)F)c(=O)n1` [compound B3, gemcitabine, reference compound], the “Compound B3 alone (observed value of living cells)” value was 95 ± 9.8 (B3 4 nM alone, Table III); 72 ± 11.5 (B3 20 nM alone, Table III); 62 ± 1.9 (B3 100 nM alone, Table III).
